Test results taken from patent publication US6603023B2 (priority 1996, dated 2003).
Structures can show the parent of a compound that is named as a salt. Where two headings read alike, the source gives them in different places.

Legend:
[1] = tested on: human ovarian adenocarcinoma SK-OV-3; settings: 0.6 mg/kg i.p. Q2Dx5 from day 9
[2] = tested on: PC-3 Human Prostate Carcinoma; test: PC-3 xenograft; format: in vivo, nude mice; settings: dEpoB 30 mg/kg 18 hr i.v. infusion, Taxol 16 mg/kg 6 hr infusion, VBL 2 and VP-16 25 mg/kg i.v. inj

C/C(=C\c1csc(C)n1)[C@@H]1C[C@@H]2O[C@]2(C)CCC[C@H](C)[C@H](O)[C@@H](C)C(=O)C(C)(C)[C@@H](O)CC(=O)O1 [Epothilone B, epothilone B]
Toxicity Death [1]: 0/6
Tumor Disapp. [1]: 0/6
Average Body Weight Change ([1]; day 13): -0.9 g
Average Body Weight Change ([1]; day 15): -0.5 g
Average Tumor Size (T/C) ([1]; day 15): 0.75
Average Body Weight Change ([1]; day 17): -3.3 g
Average Tumor Size (T/C) ([1]; day 17): 0.69
Average Body Weight Change ([1]; day 19): -3.4 g
Average Tumor Size (T/C) ([1]; day 19): 0.88
Average Tumor Size (T/C) ([1]; day 21): 0.77

CC[C@]1(O)C[C@@H]2CN(CCc3c([nH]c4ccccc34)[C@@](C(=O)OC)(c3cc4c(cc3OC)N(C)[C@H]3[C@@](O)(C(=O)OC)[C@H](OC(C)=O)[C@]5(CC)C=CCN6CC[C@]43[C@@H]65)C2)C1 [Vinblastine, Vinblastine sulfate]
Average Body Weight (change), Day 9 [2]: +1.4 g
Average Body Weight (change), Day 11 [2]: +2.1 g
Average Body Weight (change), Day 13 [2]: +3.0 g
Average Tumor Size (TC), Day 9 [2]: 0.37 TC
Average Tumor Size (TC), Day 11 [2]: 0.13 TC
Average Tumor Size (TC), Day 13 [2]: 0.03 TC
Tumor Disappearance [2]: 1/3
Average Body Weight, Day 5 ([2]; initial weight): 23.5 g
